Reference: the supplement of paper PMC9663587

Tests used:
[1] = compound: T1, CN(C)C(=O)c1cc2cnc(Nc3ccc(N4CCNCC4)cn3)nc2n1C1CCCC1 [LEE011/Ribociclib]; experiment: increase in dead-cell fraction, 72 h; higher = more death;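 also: breast cancer cell lines in 384-well plates, stained with Hoechst plus LIVE/DEAD far red dye and imaged, cells above an LDR intensity threshold counted dead, Hoechst-negative corpses included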
[2] = compound: CN1CC[C@H](c2c(O)cc(O)c3c(=O)cc(-c4ccccc4Cl)oc23)[C@H](O)C1 [Flavopiridol]; experiment: as above
[3] = compound: C=CC(=O)Nc1ccc(C(=O)Nc2[nH]nc3c2CN(C(=O)N[C@H](CN(C)C)c2ccccc2)C3(C)C)cc1 [YKL-5-124]; experiment: as above
[4] = compound: CC(=O)c1c(C)c2cnc(Nc3ccc(N4CCN(CCOCCOCCOCCNC(=O)COc5cccc6c5C(=O)N(C5CCC(=O)NC5=O)C6=O)CC4)cn3)nc2n(C2CCCC2)c1=O [BSJ-03-123]; experiment: as above
[5] = compound: CN(C)C/C=C/C(=O)Nc1ccc(C(=O)N2CCC[C@@H](Nc3ncc(Cl)c(-c4c[nH]c5ccccc45)n3)C2)cc1 [THZ531]; experiment: as above
[6] = compound: CCc1cnn2c(NCc3ccc[n+]([O-])c3)cc(N3CCCC[C@H]3CCO)nc12; experiment: as above
[7] = compound: CCN1CCN(Cc2ccc(Nc3ncc(F)c(-c4cc(F)c5nc(C)n(C(C)C)c5c4)n3)nc2)CC1; experiment: as above
[8] = compound: CC(=O)c1c(C)c2cnc(Nc3ccc(N4CCNCC4)cn3)nc2n(C2CCCC2)c1=O; experiment: as above
[9] = compound: CN(C)C/C=C/C(=O)Nc1ccc(C(=O)Nc2cccc(Nc3ncc(Cl)c(-c4c[nH]c5ccccc45)n3)c2)cc1 [THZ1]; experiment: as above
[10] = compound: CCOc1cc2ncc(C#N)c(Nc3ccc(OCc4ccccn4)c(Cl)c3)c2cc1NC(=O)/C=C/CN(C)C [Neratinib/HKI272]; experiment: as above
[11] = compound: T1, LEE011/Ribociclib
[12] = compound: COc1cccc2c1C(=O)c1c(O)c3c(c(O)c1C2=O)C[C@@](O)(C(=O)CO)C[C@@H]3O[C@H]1C[C@H](N)[C@H](O)[C@H](C)O1 [Doxorubicin]
[13] = compound: Cc1cc(Nc2ncc(Cl)c(Nc3ccccc3S(=O)(=O)C(C)C)n2)c(OC(C)C)cc1C1CCNCC1 [Ceritinib/LDK378]
[14] = compound: Cc1nn(C)c(COc2ccc(N3CCN(S(=O)(=O)N(C)C)CC3)cc2)c1-c1cccc2c(CCCOc3cccc4ccccc34)c(C(=O)O)n(CCN3CCOCC3)c12
[15] = compound: CCc1cnn2c(NCc3ccc[n+]([O-])c3)cc(N3CCCC[C@H]3CCO)nc12
[16] = compound: CS(=O)(=O)N1CCN(Cc2cc3nc(-c4cccc5[nH]ncc45)nc(N4CCOCC4)c3s2)CC1 [Pictilisib/GDC0941]
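For GR50, 72 h in this document: breast cancer and non-malignant breast epithelial cell lines, Deep Dye Drop or Dye Drop imaging, nine half-log doses, GR normalized to time-zero plates and DMSO-only controls.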

Question: Which “increase in dead-cell fraction” value ([1]; 0.001 µM) does the source give for BT20 here?
Answer: 0.002

Question: What about the “increase in dead-cell fraction” value ([1]; 0.003162 µM) of the same cell line?
Answer: 0.0029

Question: And the “increase in dead-cell fraction” value ([1]; 0.01 µM)?
Answer: 0.0024

Question: And the “increase in dead-cell fraction” value ([1]; 0.03162 µM)?
Answer: 0.0037

Question: What about the “increase in dead-cell fraction” value ([1]; 0.1 µM) of the same cell line?
Answer: 0.0051

Question: And the “increase in dead-cell fraction” value ([1]; 0.3162 µM)?
Answer: 0.0057

Question: What about the “increase in dead-cell fraction” value ([1]; 1 µM) of the same cell line?
Answer: 0.0086

Question: What about the “increase in dead-cell fraction” value ([1]; 3.162 µM) of the same cell line?
Answer: 0.0145

Question: And the “increase in dead-cell fraction” value ([1]; 10 µM)?
Answer: 0.0266

Question: What about the “increase in dead-cell fraction” value ([2]; 0.0001 µM) of the same cell line?
Answer: 0.0067

Question: What about the “increase in dead-cell fraction” value ([2]; 0.0003162 µM) of the same cell line?
Answer: 0.0031

Question: What about the “increase in dead-cell fraction” value ([2]; 0.001 µM) of the same cell line?
Answer: -0.001

Question: And the “increase in dead-cell fraction” value ([2]; 0.003162 µM)?
Answer: -0.0003

Question: What about the “increase in dead-cell fraction” value ([2]; 0.01 µM) of the same cell line?
Answer: 0.0003

Question: And the “increase in dead-cell fraction” value ([2]; 0.03162 µM)?
Answer: 0.0115

Question: And the “increase in dead-cell fraction” value ([2]; 0.1 µM)?
Answer: 0.0027

Question: And the “increase in dead-cell fraction” value ([2]; 0.3162 µM)?
Answer: 0.0458

Question: What about the “increase in dead-cell fraction” value ([2]; 1 µM) of the same cell line?
Answer: 0.637

Question: What about the “increase in dead-cell fraction” value ([3]; 0.001 µM) of the same cell line?
Answer: 0.0021

Question: What about the “increase in dead-cell fraction” value ([3]; 0.003162 µM) of the same cell line?
Answer: 0.0037

Question: And the “increase in dead-cell fraction” value ([3]; 0.01 µM)?
Answer: 0.0071

Question: What about the “increase in dead-cell fraction” value ([3]; 0.03162 µM) of the same cell line?
Answer: 0.0095

Question: And the “increase in dead-cell fraction” value ([3]; 0.1 µM)?
Answer: 0.0196

Question: And the “increase in dead-cell fraction” value ([3]; 0.3162 µM)?
Answer: 0.01

Question: And the “increase in dead-cell fraction” value ([3]; 1 µM)?
Answer: 0.0231

Question: And the “increase in dead-cell fraction” value ([3]; 3.162 µM)?
Answer: 0.0292

Question: What about the “increase in dead-cell fraction” value ([3]; 10 µM) of the same cell line?
Answer: 0.0824

Question: What about the “increase in dead-cell fraction” value ([4]; 0.001 µM) of the same cell line?
Answer: -0.0015

Question: What about the “increase in dead-cell fraction” value ([4]; 0.003162 µM) of the same cell line?
Answer: 0.0071

Question: And the “increase in dead-cell fraction” value ([4]; 0.01 µM)?
Answer: 0.0034

Question: And the “increase in dead-cell fraction” value ([4]; 0.03162 µM)?
Answer: 0.0088

Question: And the “increase in dead-cell fraction” value ([4]; 0.1 µM)?
Answer: 0.0041

Question: And the “increase in dead-cell fraction” value ([4]; 0.3162 µM)?
Answer: 0.0071

Question: And the “increase in dead-cell fraction” value ([4]; 1 µM)?
Answer: 0.0076

Question: What about the “increase in dead-cell fraction” value ([4]; 3.162 µM) of the same cell line?
Answer: 0.008

Question: What about the “increase in dead-cell fraction” value ([4]; 10 µM) of the same cell line?
Answer: 0.0323

Question: And the “increase in dead-cell fraction” value ([5]; 0.0001 µM)?
Answer: -0.0017

Question: And the “increase in dead-cell fraction” value ([5]; 0.0003162 µM)?
Answer: 0.0012

Question: And the “increase in dead-cell fraction” value ([5]; 0.001 µM)?
Answer: -0.0051

Question: What about the “increase in dead-cell fraction” value ([5]; 0.003162 µM) of the same cell line?
Answer: 0.0009

Question: And the “increase in dead-cell fraction” value ([5]; 0.01 µM)?
Answer: -0.0031

Question: What about the “increase in dead-cell fraction” value ([5]; 0.03162 µM) of the same cell line?
Answer: -0.0002

Question: What about the “increase in dead-cell fraction” value ([5]; 0.1 µM) of the same cell line?
Answer: 0.003

Question: And the “increase in dead-cell fraction” value ([5]; 0.3162 µM)?
Answer: 0.0032

Question: What about the “increase in dead-cell fraction” value ([5]; 1 µM) of the same cell line?
Answer: 0.0097

Question: What about the “increase in dead-cell fraction” value ([6]; 0.0001 µM) of the same cell line?
Answer: 0.0075

Question: And the “increase in dead-cell fraction” value ([6]; 0.0003162 µM)?
Answer: -0.0076

Question: And the “increase in dead-cell fraction” value ([6]; 0.001 µM)?
Answer: -0.0014

Question: And the “increase in dead-cell fraction” value ([6]; 0.003162 µM)?
Answer: -0.0106

Question: And the “increase in dead-cell fraction” value ([6]; 0.01 µM)?
Answer: 0.0127

Question: And the “increase in dead-cell fraction” value ([6]; 0.03162 µM)?
Answer: 0.456

Question: What about the “increase in dead-cell fraction” value ([6]; 0.1 µM) of the same cell line?
Answer: 0.789

Question: What about the “increase in dead-cell fraction” value ([6]; 0.3162 µM) of the same cell line?
Answer: 0.803

Question: What about the “increase in dead-cell fraction” value ([6]; 1 µM) of the same cell line?
Answer: 0.827

Question: And the “increase in dead-cell fraction” value ([7]; 0.001 µM)?
Answer: -0.0036

Question: And the “increase in dead-cell fraction” value ([7]; 0.003162 µM)?
Answer: -0.0047

Question: What about the “increase in dead-cell fraction” value ([7]; 0.01 µM) of the same cell line?
Answer: -0.0009

Question: And the “increase in dead-cell fraction” value ([7]; 0.03162 µM)?
Answer: -0.0044

Question: What about the “increase in dead-cell fraction” value ([7]; 0.1 µM) of the same cell line?
Answer: 0.0079

Question: What about the “increase in dead-cell fraction” value ([7]; 0.3162 µM) of the same cell line?
Answer: 0.0034

Question: And the “increase in dead-cell fraction” value ([7]; 1 µM)?
Answer: 0.0076

Question: What about the “increase in dead-cell fraction” value ([7]; 3.162 µM) of the same cell line?
Answer: 0.0117

Question: And the “increase in dead-cell fraction” value ([7]; 10 µM)?
Answer: 0.363

Question: And the “increase in dead-cell fraction” value ([8]; 0.0003162 µM)?
Answer: -0.0052

Question: What about the “increase in dead-cell fraction” value ([8]; 0.001 µM) of the same cell line?
Answer: -0.006

Question: And the “increase in dead-cell fraction” value ([8]; 0.003162 µM)?
Answer: 0.0023

Question: And the “increase in dead-cell fraction” value ([8]; 0.01 µM)?
Answer: 0.0093

Question: And the “increase in dead-cell fraction” value ([8]; 0.03162 µM)?
Answer: 0.0193

Question: What about the “increase in dead-cell fraction” value ([8]; 0.1 µM) of the same cell line?
Answer: 0.0353

Question: What about the “increase in dead-cell fraction” value ([8]; 0.3162 µM) of the same cell line?
Answer: 0.0479

Question: What about the “increase in dead-cell fraction” value ([8]; 1 µM) of the same cell line?
Answer: 0.0439

Question: What about the “increase in dead-cell fraction” value ([8]; 3.162 µM) of the same cell line?
Answer: 0.0468

Question: What about the “increase in dead-cell fraction” value ([9]; 0.0001 µM) of the same cell line?
Answer: 0.0002

Question: What about the “increase in dead-cell fraction” value ([9]; 0.0003162 µM) of the same cell line?
Answer: 0.0003

Question: And the “increase in dead-cell fraction” value ([9]; 0.001 µM)?
Answer: -0.0025

Question: What about the “increase in dead-cell fraction” value ([9]; 0.003162 µM) of the same cell line?
Answer: 0.0002

Question: What about the “increase in dead-cell fraction” value ([9]; 0.01 µM) of the same cell line?
Answer: -0.0011

Question: What about the “increase in dead-cell fraction” value ([9]; 0.03162 µM) of the same cell line?
Answer: -0.0033

Question: What about the “increase in dead-cell fraction” value ([9]; 0.1 µM) of the same cell line?
Answer: -0.0037

Question: What about the “increase in dead-cell fraction” value ([9]; 0.3162 µM) of the same cell line?
Answer: -0.001

Question: What about the “increase in dead-cell fraction” value ([9]; 1 µM) of the same cell line?
Answer: 0.212

Question: What about the “increase in dead-cell fraction” value ([10]; 0.0003162 µM) of the same cell line?
Answer: -0.0021

Question: And the “increase in dead-cell fraction” value ([10]; 0.001 µM)?
Answer: -0.0068

Question: And the “increase in dead-cell fraction” value ([10]; 0.003162 µM)?
Answer: 0.001

Question: What about the “increase in dead-cell fraction” value ([10]; 0.01 µM) of the same cell line?
Answer: 0.004

Question: What about the “increase in dead-cell fraction” value ([10]; 0.03162 µM) of the same cell line?
Answer: 0.0258

Question: And the “increase in dead-cell fraction” value ([10]; 0.1 µM)?
Answer: 0.0444

Question: And the “increase in dead-cell fraction” value ([10]; 0.3162 µM)?
Answer: 0.0552

Question: What about the “increase in dead-cell fraction” value ([10]; 1 µM) of the same cell line?
Answer: 0.0626

Question: What about the “increase in dead-cell fraction” value ([10]; 3.162 µM) of the same cell line?
Answer: 0.169

Question: And the “GR50, 72 h” value [11]?
Answer: 0.359 µM

Question: What about the “GR50, 72 h” value [12] of the same cell line?
Answer: 0.00874 µM

Question: And the “GR50, 72 h” value [13]?
Answer: 1.53 µM

Question: And the “GR50, 72 h” value [14]?
Answer: > 10 µM

Question: What about the “GR50, 72 h” value [15] of the same cell line?
Answer: 0.0185 µM

Question: What about the “GR50, 72 h” value [16] of the same cell line?
Answer: 0.904 µM
